According to PubChem BioAssay AID256 (DTP/NCI, 2004):
Several values for one entry are separate records, joined by “and”; a condition that tells them apart may be missing. Equal entries are not always repeated. Inconclusive results and toxic doses are left out. Rule for the calls: active = survival T/C of 150% or more; inactive = T/C below 125% in these data.

Test system: CD2F1 mice, L1210 leukemia ip, survival T/C
Test: NCI In Vivo Anticancer Drug Screen. Data for tumor model L1210 Leukemia (intraperitoneal) in CD2F1 (CDF1) mice
Details: higher = longer survival
Outline: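 In this screen, transplantable tumors were grown in mice given either the compound or its vehicle. Results were expressed as the treated measurement relative to the control measurement.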

[1] = endpoint: mean survival time, dose: 25.0 mg/kg/injection, schedule: Q01DX009 (ip), vehicle: Klucel (hydroxypropylcellulose) (HPC)
[2] = endpoint: mean survival time, dose: 100.0 mg/kg/injection, schedule: Q01DX001 (ip), vehicle: saline with Tween-80
[3] = endpoint: mean survival time, dose: 200.0 mg/kg/injection, schedule: Q01DX001 (ip), vehicle: saline with Tween-80
[4] = endpoint: mean survival time, dose: 400.0 mg/kg/injection, schedule: Q01DX001 (ip), vehicle: saline with Tween-80
[5] = endpoint: mean survival time, dose: 100.0 mg/kg/injection, schedule: Q04DX002 (ip), vehicle: saline with Tween-80
[6] = endpoint: mean survival time, dose: 200.0 mg/kg/injection, schedule: Q04DX002 (ip), vehicle: saline with Tween-80
[7] = endpoint: mean survival time, dose: 25.0 mg/kg/injection, schedule: Q01DX009 (ip), vehicle: saline with Tween-80
[8] = endpoint: mean survival time, dose: 50.0 mg/kg/injection, schedule: Q01DX009 (ip), vehicle: saline with Tween-80
[9] = endpoint: mean survival time, dose: 200.0 mg/kg/injection, schedule: Q01DX009 (ip), vehicle: saline with Tween-80
[10] = endpoint: mean survival time, dose: 400.0 mg/kg/injection, schedule: Q01DX009 (ip), vehicle: saline with Tween-80
[11] = endpoint: mean survival time, dose: 100.0 mg/kg/injection, schedule: Q01DX009 (ip), vehicle: saline with Tween-80
[12] = endpoint: mean survival time, dose: 100.0 mg/kg/injection, schedule: Q04DX003 (ip), vehicle: saline with Tween-80
[13] = endpoint: mean survival time, dose: 200.0 mg/kg/injection, schedule: Q04DX003 (ip), vehicle: saline with Tween-80
[14] = endpoint: mean survival time, dose: 400.0 mg/kg/injection, schedule: Q04DX003 (ip), vehicle: saline with Tween-80
[15] = endpoint: mean survival time, dose: 100.0 mg/kg/injection, schedule: Q01DX009 (ip), vehicle: Klucel (hydroxypropylcellulose) (HPC)
[16] = endpoint: mean survival time, dose: 200.0 mg/kg/injection, schedule: Q01DX009 (ip), vehicle: Klucel (hydroxypropylcellulose) (HPC)
[17] = endpoint: mean survival time, dose: 50.0 mg/kg/injection, schedule: Q01DX009 (ip), vehicle: Klucel (hydroxypropylcellulose) (HPC)

Measured: T/C

CCOC(=O)Nc1cc2c(c(N)n1)N=C(c1ccc(Cl)cc1)CN2
inactive: endpoint: mean survival time, dose: 3.0 mg/kg/injection, schedule: Q01DX009 (ip), vehicle: Klucel (hydroxypropylcellulose) (HPC) 110 % of control | endpoint: mean survival time, dose: 6.0 mg/kg/injection, schedule: Q01DX009 (ip), vehicle: Klucel (hydroxypropylcellulose) (HPC) 110 % of control | endpoint: mean survival time, dose: 12.0 mg/kg/injection, schedule: Q01DX009 (ip), vehicle: Klucel (hydroxypropylcellulose) (HPC) 114 % of control | endpoint: mean survival time, dose: 12.5 mg/kg/injection, schedule: Q01DX001 (ip), vehicle: Klucel (hydroxypropylcellulose) (HPC) 102 % of control | endpoint: mean survival time, dose: 25.0 mg/kg/injection, schedule: Q01DX001 (ip), vehicle: Klucel (hydroxypropylcellulose) (HPC) 111 % of control | [1] 110 % of control | endpoint: mean survival time, dose: 50.0 mg/kg/injection, schedule: Q01DX001 (ip), vehicle: Klucel (hydroxypropylcellulose) (HPC) 114 % of control | endpoint: mean survival time, dose: 100.0 mg/kg/injection, schedule: Q01DX001 (ip), vehicle: Klucel (hydroxypropylcellulose) (HPC) 116 % of control

Nc1cc(NC(c2ccccc2)c2ccccc2)c2[nH]cnc2n1
inactive: endpoint: mean survival time, dose: 100.0 mg/kg/injection, schedule: Q01DX001 (ip), vehicle: other 91 % of control | endpoint: mean survival time, dose: 200.0 mg/kg/injection, schedule: Q01DX001 (ip), vehicle: other 95 % of control

BrC1(Br)C2COCOCC21 (stereo not given)
inactive: [2] 94 % of control | [3] 94 % of control | [4] 94 % of control

O=C(OCC#CCOC(=O)c1c(Cl)ccc(Cl)c1Cl)c1c(Cl)ccc(Cl)c1Cl
inactive: [5] 89 % of control | [6] 89 % of control

COc1cccc(C(=O)NC[n+]2cccc(O)c2)c1
inactive: [2] 100 % of control | [3] 92 % of control | [4] 88 % of control

CC[NH-].[Cl][Pt+2][Cl].[NH-]C1CC1
inactive: endpoint: mean survival time, dose: 3.13 mg/kg/injection, schedule: Q04DX003 (ip), vehicle: distilled water + Tween-80 116 % of control

O=C(N/N=C\c1ccc(F)cc1)N/N=C/c1ccc(F)cc1
inactive: endpoint: mean survival time, dose: 12.5 mg/kg/injection, schedule: Q01DX009 (ip), vehicle: saline with Tween-80 93 % of control | [7] 91 % of control | [8] 91 % of control | [9] 90 % of control | [10] 90 % of control

COC(=O)c1cccn1C(=O)c1ccc(C)c(OCc2ccccc2)c1[N+](=O)[O-]
inactive: [5] 86 % of control | [6] 93 % of control | endpoint: mean survival time, dose: 400.0 mg/kg/injection, schedule: Q04DX002 (ip), vehicle: saline with Tween-80 93 % of control

COc1ccc(C(=O)CCCC(=O)O)cc1
inactive: [11] 90 % of control | [9] 101 % of control | [10] 97 % of control

COC(=O)CCC(=O)N(C)CCc1c[nH]c2ccccc12
inactive: [11] 100 % of control | [12] 93 % of control | [9] 94 % of control | [13] 93 % of control | [10] 100 % of control | [14] 98 % of control

COc1ccc(CCNC(=O)C(c2ccccc2)c2ccccc2)cc1OC
inactive: [11] 97 % of control | [12] 103 % of control | [9] 90 % of control | [13] 101 % of control | [10] 92 % of control | [14] 100 % of control

CCCCCCCCCCCCCCCC(=O)NCCN(CC)CC
inactive: [7] 95 % of control | [8] 98 % of control | endpoint: mean survival time, dose: 75.0 mg/kg/injection, schedule: Q04DX003 (ip), vehicle: saline with Tween-80 97 % of control | endpoint: mean survival time, dose: 150.0 mg/kg/injection, schedule: Q01DX001 (ip), vehicle: saline 98 % of control

O=C1Nc2ccccc2C(=O)Nc2ccccc21
inactive: [15] 93 % of control | [16] 89 % of control

Cc1ccc(S(=O)(=O)N/N=C(\C(=O)O)c2ccccc2)cc1
inactive: endpoint: mean survival time, dose: 12.5 mg/kg/injection, schedule: Q01DX009 (ip), vehicle: Klucel (hydroxypropylcellulose) (HPC) 95 % of control | [1] 96 % of control | [17] 96 % of control | [15] 95 % of control | [16] 93 % of control

N#[N+]c1cnc([O-])[nH]c1=O
inactive: endpoint: mean survival time, dose: 0.5 mg/kg/injection, schedule: Q07DX Z (ip), vehicle: saline 106 % of control | endpoint: mean survival time, dose: 1.0 mg/kg/injection, schedule: Q07DX Z (ip), vehicle: saline 112 % of control | endpoint: mean survival time, dose: 2.0 mg/kg/injection, schedule: Q03DX Z (ip), vehicle: saline 112 % of control | endpoint: mean survival time, dose: 2.0 mg/kg/injection, schedule: Q07DX Z (ip), vehicle: saline 118 % of control | endpoint: mean survival time, dose: 4.0 mg/kg/injection, schedule: Q07DX Z (ip), vehicle: saline 116 % of control | endpoint: mean survival time, dose: 8.0 mg/kg/injection, schedule: Q01DX001 (ip), vehicle: saline 112 % of control | endpoint: mean survival time, dose: 16.0 mg/kg/injection, schedule: Q01DX001 (ip), vehicle: saline 112 % of control | endpoint: mean survival time, dose: 32.0 mg/kg/injection, schedule: Q01DX001 (ip), vehicle: saline 115 % of control and 117 % of control

O=C(NO)Nc1ccc(Cl)cc1
inactive: endpoint: mean survival time, dose: 8.0 mg/kg/injection, schedule: Q03HX024 (ip), vehicle: other 95 % of control | endpoint: mean survival time, dose: 16.0 mg/kg/injection, schedule: Q03HX024 (ip), vehicle: other 92 % of control | endpoint: mean survival time, dose: 32.0 mg/kg/injection, schedule: Q03HX024 (ip), vehicle: other 95 % of control | endpoint: mean survival time, dose: 62.0 mg/kg/injection, schedule: Q03HX024 (ip), vehicle: saline with Tween-80 106 % of control | endpoint: mean survival time, dose: 64.0 mg/kg/injection, schedule: Q03HX024 (ip), vehicle: other 93 % of control | endpoint: mean survival time, dose: 93.0 mg/kg/injection, schedule: Q03HX024 (ip), vehicle: saline with Tween-80 100 % of control | [12] 97 % of control | endpoint: mean survival time, dose: 128.0 mg/kg/injection, schedule: Q03HX024 (ip), vehicle: other 96 % of control | [13] 100 % of control | [14] 95 % of control

Cc1cccnc1NC(=O)/C=C/C(=O)O
inactive: endpoint: mean survival time, dose: 12.5 mg/kg/injection, schedule: Q04DX003 (ip), vehicle: saline with Tween-80 96 % of control | endpoint: mean survival time, dose: 25.0 mg/kg/injection, schedule: Q04DX003 (ip), vehicle: saline with Tween-80 101 % of control | endpoint: mean survival time, dose: 50.0 mg/kg/injection, schedule: Q04DX003 (ip), vehicle: saline with Tween-80 104 % of control

O=c1ccc2nc3ccccc3sc-2c1
inactive: [1] 106 % of control | [17] 103 % of control | [8] 97 % of control | [15] 108 % of control | [16] 98 % of control

[Cl][Pt+2][Cl].[NH-]C(C(=O)O)c1ccccc1.[NH-]C(C(=O)O)c1ccccc1 (stereo not given)
inactive: endpoint: median survival time, dose: 3.12 mg/kg/injection, schedule: Q04DX003 (ip), vehicle: saline 103 % of control | endpoint: median survival time, dose: 6.25 mg/kg/injection, schedule: Q04DX003 (ip), vehicle: saline 103 % of control | endpoint: median survival time, dose: 12.5 mg/kg/injection, schedule: Q04DX003 (ip), vehicle: saline 100 % of control | endpoint: median survival time, dose: 25.0 mg/kg/injection, schedule: Q04DX003 (ip), vehicle: saline 107 % of control | endpoint: median survival time, dose: 50.0 mg/kg/injection, schedule: Q04DX003 (ip), vehicle: saline 101 % of control | endpoint: median survival time, dose: 100.0 mg/kg/injection, schedule: Q04DX003 (ip), vehicle: saline 123 % of control

CC(C)(C)CC(C)(C)c1ccc(OCCOc2ccc(C(=O)NCCNC(=O)c3ccc4ccccc4c3O)cc2N)cc1
inactive: [9] 89 % of control | [10] 89 % of control

CCCc1ccc(C(C)=O)cc1
inactive: endpoint: mean survival time, dose: 75.0 mg/kg/injection, schedule: Q04DX002 (ip), vehicle: saline with Tween-80 112 % of control | endpoint: mean survival time, dose: 150.0 mg/kg/injection, schedule: Q04DX002 (ip), vehicle: saline with Tween-80 100 % of control

COc1cc2c3c(cccc3c1)C(=O)N(CCN(C)C)C2=O
inactive: endpoint: mean survival time, dose: 5.0 mg/kg/injection, schedule: Q01DX009 (ip), vehicle: saline with Tween-80 98 % of control and 100 % of control | endpoint: mean survival time, dose: 10.0 mg/kg/injection, schedule: Q01DX009 (ip), vehicle: saline with Tween-80 98 % of control and 102 % of control | endpoint: mean survival time, dose: 20.0 mg/kg/injection, schedule: Q01DX009 (ip), vehicle: saline with Tween-80 97 % of control and 101 % of control | endpoint: mean survival time, dose: 40.0 mg/kg/injection, schedule: Q01DX009 (ip), vehicle: saline with Tween-80 100 % of control and 108 % of control | endpoint: mean survival time, dose: 80.0 mg/kg/injection, schedule: Q01DX009 (ip), vehicle: saline with Tween-80 103 % of control and 110 % of control | endpoint: mean survival time, dose: 160.0 mg/kg/injection, schedule: Q01DX009 (ip), vehicle: saline with Tween-80 106 % of control
